{
  "source": "paper PMC10509173",
  "about": "“Deep learning driven de novo drug design based on gastric proton pump structures” (Communications Biology, 2023)",
  "key": {"H+,K+-ATPase [1]": {"test_system": "H+,K+-ATPase", "parameters": "method as in PMID 35604136, PMID 28747707", "conditions": "cited from earlier work"}, "H+,K+-ATPase [2]": {"molecular_target": "T1, H+,K+-ATPase (Sus scrofa, UniProt P19156)", "T1 sequence (P19156 2-1034 limits assumed)": "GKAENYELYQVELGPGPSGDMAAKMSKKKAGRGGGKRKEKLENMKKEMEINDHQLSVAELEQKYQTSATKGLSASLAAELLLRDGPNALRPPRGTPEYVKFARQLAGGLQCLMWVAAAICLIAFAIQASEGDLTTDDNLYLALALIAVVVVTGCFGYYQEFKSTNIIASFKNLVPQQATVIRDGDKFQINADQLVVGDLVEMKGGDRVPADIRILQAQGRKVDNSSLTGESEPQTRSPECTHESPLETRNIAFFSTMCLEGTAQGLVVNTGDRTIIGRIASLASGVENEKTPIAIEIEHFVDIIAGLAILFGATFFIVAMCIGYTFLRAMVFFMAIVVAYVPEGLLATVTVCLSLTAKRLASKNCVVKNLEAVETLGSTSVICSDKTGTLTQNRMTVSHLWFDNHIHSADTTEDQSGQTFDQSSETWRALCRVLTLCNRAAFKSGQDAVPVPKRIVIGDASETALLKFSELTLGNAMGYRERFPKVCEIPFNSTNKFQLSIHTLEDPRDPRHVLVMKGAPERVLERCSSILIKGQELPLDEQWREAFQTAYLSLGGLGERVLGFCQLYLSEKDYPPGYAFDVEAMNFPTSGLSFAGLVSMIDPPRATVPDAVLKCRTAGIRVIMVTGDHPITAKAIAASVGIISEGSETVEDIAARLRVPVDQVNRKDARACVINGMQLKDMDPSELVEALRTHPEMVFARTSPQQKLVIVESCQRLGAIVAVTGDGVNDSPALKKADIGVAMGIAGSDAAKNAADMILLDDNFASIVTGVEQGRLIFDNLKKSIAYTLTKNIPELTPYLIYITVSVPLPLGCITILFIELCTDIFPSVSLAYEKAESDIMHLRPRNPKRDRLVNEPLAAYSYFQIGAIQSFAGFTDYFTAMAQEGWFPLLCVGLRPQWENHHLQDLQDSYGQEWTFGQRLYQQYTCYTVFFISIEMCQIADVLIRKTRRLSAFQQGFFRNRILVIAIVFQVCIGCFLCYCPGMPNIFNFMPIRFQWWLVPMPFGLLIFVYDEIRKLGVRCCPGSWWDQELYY", "T1 sequence (P18434 whole entry partner)": "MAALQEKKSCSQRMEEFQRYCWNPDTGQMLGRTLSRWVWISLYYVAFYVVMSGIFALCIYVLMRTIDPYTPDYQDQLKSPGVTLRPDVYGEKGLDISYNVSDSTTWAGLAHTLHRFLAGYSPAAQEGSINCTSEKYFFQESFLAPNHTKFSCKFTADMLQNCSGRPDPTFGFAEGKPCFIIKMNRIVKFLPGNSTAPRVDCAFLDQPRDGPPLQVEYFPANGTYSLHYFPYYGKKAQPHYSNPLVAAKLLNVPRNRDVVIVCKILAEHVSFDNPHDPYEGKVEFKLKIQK", "assay": "K+-dependent ATPase assay, double reciprocal plot and Ki estimation", "format": "biochemical, pig", "parameters": "H^+,K^+-ATPase-enriched membrane fractions were purified from pig stomach; from tissue; host or cells: pig stomach (gastric membrane fractions); reciprocal K+-stimulated ATPase activity, Lineweaver-Burk raw data: unit not given here", "conditions": "for reciprocal K+-stimulated ATPase activity, Lineweaver-Burk raw data: replicate values", "text": "Data measured from 96-well plate contained triplicates of four different sets of K^+-dependent ATPase assays in the absence or presence of three different concentrations of synthesized compounds. Data were corrected for background values in the absence of K^+ at each compound concentration, and plot them against the double reciprocal axes in Supplementary Fig. 5. Data were also fitted by using simultaneous nonlinear regression as described previously to estimate their Ki values."}, "H+,K+-ATPase [3]": {"molecular_target": "T1, H+,K+-ATPase", "assay": "Dose-dependent inhibition of H+,K+-ATPase activity, membrane fractions", "conditions": "for H+,K+-ATPase activity, raw data of dose-dependent inhibition: single replicate values"}},
  "note": "Several values for one entry are separate records, joined by “and”; a condition that tells them apart may be missing. Identical values can stand only once.",
  "data": [
    {"smiles": "Cc1nc2c3c(ccn2c1C)[C@@H](O)[C@H](O)[C@@H](c1ccccc1)N3", "note": "[BYK99]", "values": [
      {"measurement": "times higher apparent affinity than SCH28080", "setting": "H+,K+-ATPase [1]", "result": "more than 25 times"}
    ]},
    {"smiles": "CNCC#CCOCc1cc(Cl)ccc1-c1ccc(Cl)cc1", "note": "[DQ-02]", "values": [
      {"measurement": "reciprocal K+-stimulated ATPase activity, Lineweaver-Burk raw data", "setting": "H+,K+-ATPase [2]; compound concentration 5, 1/KCl 0.05 (units not given)", "result": "0.0047 and 0.0046 and 0.005"},
      {"measurement": "reciprocal K+-stimulated ATPase activity, Lineweaver-Burk raw data", "setting": "H+,K+-ATPase [2]; compound concentration 5, 1/KCl 0.1 (units not given)", "result": "0.0059 and 0.0058 (2×)"},
      {"measurement": "reciprocal K+-stimulated ATPase activity, Lineweaver-Burk raw data", "setting": "H+,K+-ATPase [2]; compound concentration 5, 1/KCl 0.125 (units not given)", "result": "0.0059 (2×) and 0.006"},
      {"measurement": "reciprocal K+-stimulated ATPase activity, Lineweaver-Burk raw data", "setting": "H+,K+-ATPase [2]; compound concentration 5, 1/KCl 0.2 (units not given)", "result": "0.0059 (2×) and 0.0061"},
      {"measurement": "reciprocal K+-stimulated ATPase activity, Lineweaver-Burk raw data", "setting": "H+,K+-ATPase [2]; compound concentration 5, 1/KCl 0.5 (units not given)", "result": "0.0114 and 0.0113 and 0.0109"},
      {"measurement": "reciprocal K+-stimulated ATPase activity, Lineweaver-Burk raw data", "setting": "H+,K+-ATPase [2]; compound concentration 5, 1/KCl 1 (units not given)", "result": "0.0177 and 0.0175 and 0.0166"},
      {"measurement": "reciprocal K+-stimulated ATPase activity, Lineweaver-Burk raw data", "setting": "H+,K+-ATPase [2]; compound concentration 5, 1/KCl 2 (units not given)", "result": "0.0312 and 0.0335 and 0.0294"},
      {"measurement": "reciprocal K+-stimulated ATPase activity, Lineweaver-Burk raw data", "setting": "H+,K+-ATPase [2]; compound concentration 10, 1/KCl 0.05 (units not given)", "result": 0.0052},
      {"measurement": "reciprocal K+-stimulated ATPase activity, Lineweaver-Burk raw data", "setting": "H+,K+-ATPase [2]; compound concentration 10, 1/KCl 0.1 (units not given)", "result": "0.0066 and 0.0067 and 0.0069"},
      {"measurement": "reciprocal K+-stimulated ATPase activity, Lineweaver-Burk raw data", "setting": "H+,K+-ATPase [2]; compound concentration 10, 1/KCl 0.125 (units not given)", "result": "0.0073 and 0.0075 and 0.0074"},
      {"measurement": "reciprocal K+-stimulated ATPase activity, Lineweaver-Burk raw data", "setting": "H+,K+-ATPase [2]; compound concentration 10, 1/KCl 0.2 (units not given)", "result": "0.0079 and 0.0078 and 0.0077"},
      {"measurement": "reciprocal K+-stimulated ATPase activity, Lineweaver-Burk raw data", "setting": "H+,K+-ATPase [2]; compound concentration 10, 1/KCl 0.5 (units not given)", "result": "0.0173 and 0.016 and 0.018"},
      {"measurement": "reciprocal K+-stimulated ATPase activity, Lineweaver-Burk raw data", "setting": "H+,K+-ATPase [2]; compound concentration 10, 1/KCl 1 (units not given)", "result": "0.0258 (2×) and 0.029"},
      {"measurement": "reciprocal K+-stimulated ATPase activity, Lineweaver-Burk raw data", "setting": "H+,K+-ATPase [2]; compound concentration 10, 1/KCl 2 (units not given)", "result": "0.0498 and 0.0514 and 0.0558"},
      {"measurement": "reciprocal K+-stimulated ATPase activity, Lineweaver-Burk raw data", "setting": "H+,K+-ATPase [2]; compound concentration 40, 1/KCl 0.05 (units not given)", "result": "0.0101 and 0.0102 and 0.0088"},
      {"measurement": "reciprocal K+-stimulated ATPase activity, Lineweaver-Burk raw data", "setting": "H+,K+-ATPase [2]; compound concentration 40, 1/KCl 0.1 (units not given)", "result": "0.0146 and 0.0158 and 0.0151"},
      {"measurement": "reciprocal K+-stimulated ATPase activity, Lineweaver-Burk raw data", "setting": "H+,K+-ATPase [2]; compound concentration 40, 1/KCl 0.125 (units not given)", "result": "0.0175 and 0.0157 and 0.013"},
      {"measurement": "reciprocal K+-stimulated ATPase activity, Lineweaver-Burk raw data", "setting": "H+,K+-ATPase [2]; compound concentration 40, 1/KCl 0.2 (units not given)", "result": "0.0176 and 0.0181 and 0.0182"},
      {"measurement": "reciprocal K+-stimulated ATPase activity, Lineweaver-Burk raw data", "setting": "H+,K+-ATPase [2]; compound concentration 40, 1/KCl 0.5 (units not given)", "result": "0.0393 and 0.036 and 0.0314"},
      {"measurement": "reciprocal K+-stimulated ATPase activity, Lineweaver-Burk raw data", "setting": "H+,K+-ATPase [2]; compound concentration 40, 1/KCl 1 (units not given)", "result": "0.0754 and 0.0762 and 0.0737"},
      {"measurement": "reciprocal K+-stimulated ATPase activity, Lineweaver-Burk raw data", "setting": "H+,K+-ATPase [2]; compound concentration 40, 1/KCl 2 (units not given)", "result": "0.1646 and 0.1689 and 0.18"},
      {"measurement": "Ki", "setting": "H+,K+-ATPase [2]; double reciprocal plot analysis, K+-competitive, read-out: estimated inhibition constant Ki", "result": 4.65, "unit": "µM"},
      {"measurement": "inhibition mode", "setting": "H+,K+-ATPase [2]; double reciprocal plot, versus K+", "result": "typical competitive inhibition pattern"},
      {"measurement": "IC50", "setting": "H+,K+-ATPase [3]", "result": "39.9 ± 3.3", "unit": "µM"},
      {"measurement": "H+,K+-ATPase activity, raw data of dose-dependent inhibition", "setting": "H+,K+-ATPase [3]; [PCAB] -3.30103 (log, unit not given)", "result": "-3.48 and -2.88 and 2.99 and 4.4 and 2.96 and 5.89"},
      {"measurement": "H+,K+-ATPase activity, raw data of dose-dependent inhibition", "setting": "H+,K+-ATPase [3]; [PCAB] -3.52288 (log, unit not given)", "result": "0.86 and 1.16 and 4.19 and 5.19 and 4.89 and 4.75"},
      {"measurement": "H+,K+-ATPase activity, raw data of dose-dependent inhibition", "setting": "H+,K+-ATPase [3]; [PCAB] -4 (log, unit not given)", "result": "42.01 and 43.89 and 31.47 and 31.59 and 28.65 and 29.6"},
      {"measurement": "H+,K+-ATPase activity, raw data of dose-dependent inhibition", "setting": "H+,K+-ATPase [3]; [PCAB] -4.30103 (log, unit not given)", "result": "44.62 and 46.8 and 48.6 and 46.17 and 46.72 and 37.34"},
      {"measurement": "H+,K+-ATPase activity, raw data of dose-dependent inhibition", "setting": "H+,K+-ATPase [3]; [PCAB] -4.52288 (log, unit not given)", "result": "56.61 and 55.53 and 56.64 and 57.99 and 58.21 and 59.24"},
      {"measurement": "H+,K+-ATPase activity, raw data of dose-dependent inhibition", "setting": "H+,K+-ATPase [3]; [PCAB] -5 (log, unit not given)", "result": "76.31 and 74.65 and 77.66 and 80.01 and 78.54 and 73.73"},
      {"measurement": "H+,K+-ATPase activity, raw data of dose-dependent inhibition", "setting": "H+,K+-ATPase [3]; [PCAB] -5.52288 (log, unit not given)", "result": "94.23 and 90.64 and 95.59 and 93.89 and 93 and 95.88"},
      {"measurement": "H+,K+-ATPase activity, raw data of dose-dependent inhibition", "setting": "H+,K+-ATPase [3]; [PCAB] -6 (log, unit not given)", "result": "97.7 and 98.02 and 94.2 and 97.49 and 93.51 and 99.15"},
      {"measurement": "H+,K+-ATPase activity, raw data of dose-dependent inhibition", "setting": "H+,K+-ATPase [3]; [PCAB] -6.30103 (log, unit not given)", "result": "97.98 and 96.67 and 103.79 and 104.81 and 106.59 and 107.52"},
      {"measurement": "H+,K+-ATPase activity, raw data of dose-dependent inhibition", "setting": "H+,K+-ATPase [3]; [PCAB] -7 (log, unit not given)", "result": "99.57 and 99.45 and 98.18 and 98.05 and 96.63 and 99.09"},
      {"measurement": "H+,K+-ATPase activity, raw data of dose-dependent inhibition", "setting": "H+,K+-ATPase [3]; [PCAB] -8 (log, unit not given)", "result": "97.5 and 100.13 and 97.23 and 97.51 and 96.21 and 102.69"},
      {"measurement": "H+,K+-ATPase activity, raw data of dose-dependent inhibition", "setting": "H+,K+-ATPase [3]; [PCAB] -11 (log, unit not given; possibly placeholder for no compound)", "result": "99.85 and 98.59 and 101.41 and 99.82 and 98.22 and 99.87"}
    ]}
  ]
}
